Assay results: patent US20250295119A1, “SPHERICAL NAN[…] FROM TMGMV IMPROVE SOIL TRANSPORT OF SMALL, HYDROPHOBIC AGROCHEMICALS” (THE REGENTS OF THE UNIVERSITY OF CALIFORNIA, priority 2022, published 2025)

Tests used:
C. elegans [1] = experiment: Pluronic F127 gel burrowing assay after treatment of C. elegans in solution; format: in vivo, Caenorhabditis elegans; details: 10 μM ivermectin (normalized), 90 minutes incubation in solution, no soil passage
Protocol: (§1) As a final test, Applicant delivered IVN-SNPs against C. elegans (FIG. 4). Nematodes were incubated with SNPs, IVN-SNPs, and free IVN for 90 minutes in solution. In parallel, the same (IVN-)SNPs were passed through a soil column and collected before treating the C. elegans in solution. For all samples, Applicant performed a modified gel burrowing assay (FIG. 4A) by transferring the nematodes and casting them in Pluronic F127 in a well-plate^23. The surface was coated with E. coli OP-50 lysate to attract the nematodes, and the number of C. elegans which penetrated to the surface were counted. Nematode mobility was quantified based on their total track coverage using edge detection (FIGS. 4B-4D, FIG. 13, FIG. 14). The mobility was then estimated using the following equation: […]
Using the optimized Pluronic concentration of 26% w/w previously reported, Pluronic F127 solutions were stored at 4° C. to dissolve and stay soluble (Lesanpezeshki, L. et al., Scientific Reports 2019). […] After 2 hours, an 11×11 area scan at 4× magnification (Keyence BZ-X800 Fluorescence Microscope) was taken for each well. The number of nematodes on the surface were counted manually and the area fraction of their tracks was determined by edge detection and binary image transformation in ImageJ.

C. elegans [2] = experiment: Pluronic F127 gel burrowing assay with samples first passed through a 10 cm soil column; format: in vivo, Caenorhabditis elegans; details: 10 μM ivermectin, collected fractions
Protocol: as §1
Magic Topsoil (Michigan Peat) was weighed and packed into a cylindrical column fitted with miracloth at the bottom. […] The band intensity of the fractions on SDS PAGE was determined using ImageJ. […]
Using the optimized Pluronic concentration of 26% w/w previously reported, Pluronic F127 solutions were stored at 4° C. to dissolve and stay soluble (Lesanpezeshki, L. et al., Scientific Reports 2019). […] After 2 hours, an 11×11 area scan at 4× magnification (Keyence BZ-X800 Fluorescence Microscope) was taken for each well. […]

## ivermectin
C. elegans [1]
  reduction in surface velocity: 4.5 fold
  reduction in the number of nematodes on the surface: 6 fold
C. elegans [2]
  reduction in surface velocity after passing through a soil column: no reduction
  reduction in the number of nematodes after passing through a soil column: no reduction
